Measurements published in paper PMC9699072 (Molecules, 2022).
Where “and” joins values, the source holds several entries; their conditions need not be identical. Equal values may be shown once. Where a name gives a salt, the structure may show the parent alone. Read-outs that look alike come from different tables or passages of the source.

Tests used:
[1] = ABTS radical cation scavenging (decolorization) assay; format: biochemical; conditions: mean ± SEM, n = 3; for ABTS TEAC (Trolox equivalent antioxidant capacity): 1 h incubation, relative to Trolox; for IC50: 1 h, read-out: ABTS IC50 (compound concentration required for 50% reduction of the ABTS radical-cation) (converted)
Description: The ABTS assay is based on the direct quenching of the ABTS cation radical (ABTS^•+) by antioxidants. The assay is carried out by spectrophotometric determination of a decrease in absorbance of a stable dark green ABTS^•+ solution after its interaction with an antioxidant compound [56]. The measurements were performed as previously described in detail. The results are expressed as TEAC values (Trolox equivalent antioxidant capacity) and IC50 values (compound concentration required for 50% reduction of the ABTS radical).
Radical scavenging activity of the compounds was assessed using the ABTS radical cation (ABTS^•+) decolorization assay with some modifications. ABTS (2,2′-azinobis-(3-ethylbenzothiazoline-6-sulfonic acid)) was purchased from Tokyo Chemical Industry Co., Ltd. (Tokyo, Japan), and potassium persulfate (dipotassium peroxodisulfate), Trolox (6-hydroxy-2,5,7,8-tetramethylchroman-2-carboxylic acid), and HPLC-grade ethanol and DMSO were obtained from Sigma-Aldrich (Saint Louis, MO, USA). Aqueous solutions were prepared using deionized water. All test compounds were dissolved in DMSO.
The solution of cation radical ABTS^•+ was produced by incubation of an aqueous solution of 7 mM ABTS and 2.45 mM potassium persulfate solution in equal quantities for 12–16 h at room temperature in the dark. Radical scavenging capacity of the compounds was analyzed by mixing 10 μL of compound with 240 μL of ABTS^•+ working solution in ethanol (100 μM final concentration). Data were given for 1 h of incubation of compounds with ABTS^•+. The reduction in absorbance was measured spectrophotometrically at 734 nm using an xMark microplate UV/VIS microplate spectrophotometer (Bio-Rad, Hercules, CA, USA).
Ethanol blanks were run in each assay. Values were obtained from three replicates of each sample and three independent experiments.
Standard antioxidant Trolox was used as a reference compound. Antioxidant capacity as Trolox equivalent (TEAC) values was determined as the ratio between the slopes obtained from the linear correlation of the ABTS radical absorbance with the concentrations of tested compounds and Trolox. Quercetin was used as a positive control. For the test compounds that reduced ABTS^•+ absorbance by more than 60% at 100 µM, we also determined the IC50 values (the compound concentration required for a 50% reduction of the ABTS radical). The compounds were tested in the concentration range of 0.5–400 µM.

[2] = target: T1, equine serum butyrylcholinesterase (BChE) (Equus caballus, UniProt P81908); assay: Inhibition of BChE (Ellman's colorimetric assay); format: biochemical; conditions: ± SEM, n = 3, 10 min incubation 25 °C
T1 construct: equine serum butyrylcholinesterase (BChE, EC 3.1.1.8); purchased Sigma-Aldrich (Saint Louis, MO, USA); host or cells: equine serum
Text: (§1) Given the available literature data on the ability of pyrazole derivatives to inhibit acetylcholinesterase (AChE) and human carboxylesterase-1 (CES), we performed an investigation of the esterase profile for new compounds 1a–j and 4a–j, including an evaluation of their inhibitory effect on the standard enzymes set: human erythrocyte AChE, equine serum butyrylcholinesterase (BChE), and porcine liver CES (Table 2). The applicability of this set of enzymes was shown by us earlier.
(§2) Human erythrocyte acetylcholinesterase (AChE, EC 3.1.1.7), equine serum butyrylcholinesterase (BChE, EC 3.1.1.8), porcine liver carboxylesterase (CES, EC 3.1.1.1), acetylthiocholine iodide (ATCh), butyrylthiocholine iodide (BTCh), 4-nitrophenol acetate (4-NPA), and 5,5′-dithio-bis-(2-nitrobenzoic acid) (DTNB) were purchased from Sigma-Aldrich (Saint Louis, MO, USA).
(§3) All the kinetic experiments were performed under standard conditions, according to the protocol of IPAC RAS for a reversible inhibitors study.
(§4) Ellman’s colorimetric assay was used to measure AChE and BChE activity in 0.1 M K/Na phosphate buffer at pH 7.5, 25 °C [86]. Final concentrations of reactants were 0.33 mM DTNB, 0.02 unit/mL of AChE or BChE, and 1 mM of substrate (ATCh or BTCh, respectively). Reagent blanks consisted of reaction mixtures without enzyme to assess non-enzymatic hydrolysis of substrates. Porcine liver CES activity was assessed colorimetrically in 0.1 M K/Na phosphate buffer with pH 8.0 at 25 °C, by measuring the absorbance of 4-nitrophenol at 405 nm. Final enzyme and substrate (4-NPA) concentrations were 0.02 unit/mL and 1 mM, respectively. Reagent blanks included all constituents except enzyme.
(§5) Test compounds were dissolved in DMSO. Reaction mixtures contained a final DMSO concentration of 2% (v/v). Enzyme inhibition was first assessed at a single concentration of 20 µM for each compound after a 10 min incubation at 25 °C in three separate experiments. Compounds inhibiting the enzyme by more than 30% were then selected for determination of the IC50 (inhibitor concentration resulting in 50% inhibition of control enzyme activity). […] Substrate was then added, and residual enzyme activity relative to an inhibitor-free control was measured using a FLUOStar Optima microplate reader (LabTech, Ortenberg, Germany).

porcine liver CES = assay: Inhibition of CES (4-nitrophenol acetate hydrolysis); format: biochemical; conditions: ± SEM; for CES % inhibition at 20 μM: n = 3, 10 min incubation 25 °C; for IC50: n = 3
Text: as §1, §2, §3, §4, §5

human erythrocyte AChE = target: T2, human erythrocyte AChE (Homo sapiens, UniProt P22303); assay: Inhibition of AChE (Ellman's colorimetric assay); format: biochemical; conditions: read-out: AChE % inhibition at 20 μM
T2 construct: Human erythrocyte acetylcholinesterase (AChE, EC 3.1.1.7); purchased Sigma-Aldrich (Saint Louis, MO, USA); host or cells: human erythrocytes
Text: as §1, §2, §3, §4, §5

[3] = tested on: normal human dermal fibroblast (NHDF) cultures; assay: Cytotoxicity, MTT/formazan assay; format: cell-based; conditions: 72 h, MTT
Description: Cytotoxicity of compounds was evaluated using a culture of human dermal fibroblasts, which were isolated in the Laboratory of Cell Cultures of the Institute of Medical Cell Technologies, Ekaterinburg, Russia. Cells were seeded in 96-well plates in the inoculum dose of 2 × 10^5 cells/mL and cultured for 24 h in Dulbecco’s Modified Eagle Medium (DMEM), with 1% (w/v) glutamine in the presence of 10% (v/v) fetal bovine serum and gentamicin (50 mg/L) at 37 °C, with a humidified atmosphere of 5% (v/v) CO2. Then, compounds, which were solved in DMSO, were added to the wells at the final concentrations of 0.1, 1, 10, and 100 µM. The cells were incubated with compounds for 72 h, after which cell viability was assessed using the standard MTT assay. The assay was carried out in four replicates with negative (culture medium) and positive (solution of the cytotoxic drug camptothecin at a concentration of 3 mM) controls, and the solvent control (DMSO). […] The MTT staining of control cells was taken as 100%.

[4] = ORAC-FL (oxygen radical absorbance capacity) assay; format: biochemical; conditions: mean ± SEM, n = 3; 2 h; read-out: ORAC-FL IC50 (compound concentration required for 50% reduction of peroxyl radical) (converted)
[5] = design: method as in PMID 16997555; conditions: relative to EDA; cited from earlier work
[6] = 20 μM, ± SEM, n = 3, 10 min incubation 25 °C

T1 sequence (P81908 whole entry): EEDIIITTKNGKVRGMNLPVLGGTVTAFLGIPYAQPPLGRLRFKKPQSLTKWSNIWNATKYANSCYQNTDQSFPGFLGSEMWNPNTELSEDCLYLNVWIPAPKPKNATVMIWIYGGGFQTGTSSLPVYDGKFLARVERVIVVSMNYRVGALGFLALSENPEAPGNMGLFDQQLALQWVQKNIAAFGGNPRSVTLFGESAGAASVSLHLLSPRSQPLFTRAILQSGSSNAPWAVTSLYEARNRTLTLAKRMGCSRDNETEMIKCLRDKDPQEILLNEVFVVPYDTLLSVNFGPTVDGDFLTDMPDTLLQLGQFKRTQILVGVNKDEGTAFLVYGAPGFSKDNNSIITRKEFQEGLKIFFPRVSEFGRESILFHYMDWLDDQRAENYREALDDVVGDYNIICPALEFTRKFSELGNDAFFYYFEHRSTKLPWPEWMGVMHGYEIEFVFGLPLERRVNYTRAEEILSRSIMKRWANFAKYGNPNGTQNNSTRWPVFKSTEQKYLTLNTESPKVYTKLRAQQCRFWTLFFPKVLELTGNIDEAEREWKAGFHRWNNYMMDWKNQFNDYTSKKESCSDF
T2 sequence (P22303 32-617 isoform P22303-2 limits assumed): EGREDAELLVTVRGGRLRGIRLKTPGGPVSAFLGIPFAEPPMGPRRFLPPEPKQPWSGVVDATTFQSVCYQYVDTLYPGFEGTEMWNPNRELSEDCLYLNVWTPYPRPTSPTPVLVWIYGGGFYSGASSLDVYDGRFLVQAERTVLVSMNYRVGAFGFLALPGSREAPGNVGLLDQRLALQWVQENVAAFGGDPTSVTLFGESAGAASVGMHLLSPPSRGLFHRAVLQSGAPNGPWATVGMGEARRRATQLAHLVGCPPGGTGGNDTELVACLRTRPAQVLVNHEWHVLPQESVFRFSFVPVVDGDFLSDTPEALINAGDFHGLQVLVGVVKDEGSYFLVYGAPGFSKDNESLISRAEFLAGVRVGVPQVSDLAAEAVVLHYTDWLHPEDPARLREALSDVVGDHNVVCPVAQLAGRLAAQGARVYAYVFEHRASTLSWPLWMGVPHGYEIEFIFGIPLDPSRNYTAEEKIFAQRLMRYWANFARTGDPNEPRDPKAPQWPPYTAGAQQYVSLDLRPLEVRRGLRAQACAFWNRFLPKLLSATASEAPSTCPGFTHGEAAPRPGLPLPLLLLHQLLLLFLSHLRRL

Row | Compound | ABTS TEAC (Trolox equivalent antioxidant capacity) [1] | inhibition at 20 µM [2] [%] | CES % inhibition at 20 μM (porcine liver CES) [%] | IC50 [1] [µM] | inhibition at 20 µM (human erythrocyte AChE) [%] | IC50 (porcine liver CES) | other results
1 | CC1=NNC(=O)/C1=N\O [1j] | 0.2 ± 0.03 (n.d.) TEAC | 3.8 ± 1.3 |  |  |  |  | 
2 | Cl.Nc1c(C(F)(F)C(F)(F)F)n[nH]c1O.O [4g, 4-Amino-3-(pentafluoroethyl)-1H-pyrazol-5-ol hydrate hydrochloride] | 0.73 ± 0.03 TEAC | 8.9 ± 1.4 | 6.7 ± 1.2 | 25.7 | 17.3 ± 1.7 |  | 
3 | Cc1n[nH]c(O)c1N.Cl [4j, 4-Amino-3-methyl-1H-pyrazol-5-ol hydrochloride] | 0.95 ± 0.04 TEAC | 13.9 ± 1.6 | 4.3 ± 0.9 | 20.1 |  |  | Cytotoxicity against NHDF cell culture ([3]; 100 µM): neither of the compounds 4d,j showed cytotoxicity
4 | O=C1NN=C(C(F)(F)F)/C1=N/O [1e] | 0.23 ± 0.01 (n.d.) TEAC |  | 5.9 ± 1.1 |  |  |  | 
5 | Cl.Nc1c(C(F)(F)C(F)(F)F)nn(-c2ccccc2)c1O.O [4b, 4-Amino-3-(pentafluoroethyl)-1-phenyl-1H-pyrazol-5-ol hydrate hydrochloride] | 0.6 ± 0.03 TEAC | 12.8 ± 1.5 | 16.6 ± 1.4 | 34.1 | 4.4 ± 1.1 |  | 
6 | Cl.Nc1c(C(F)(F)C(F)(F)C(F)(F)F)n[nH]c1O.O [4h, 4-Amino-3-(heptafluoropropyl)-1H-pyrazol-5-ol hydrate hydrochloride] | 0.78 ± 0.04 TEAC | 3.4 ± 0.9 |  | 24.8 |  | 81.8 ± 7.3 µM | 
7 | Cc1nn(-c2ccccc2)c(O)c1N.Cl.O [4d, 4-Amino-3-methyl-1-phenyl-1H-pyrazol-5-ol hydrochloride hydrate] | 0.93 ± 0.03 TEAC | 5.1 ± 1.3 |  | 23.3 | 6.5 ± 1.2 | 98.7 ± 8.8 µM | IC50 [4]: 6.85 µM; Cytotoxicity against NHDF cell culture ([3]; 100 µM): neither of the compounds 4d,j showed cytotoxicity; Cytotoxicity against NHDF cell culture ([3]; 100 µM, listed as APH): not cytotoxic; ABTS TEAC (Trolox equivalent antioxidant capacity) ([1]; listed as APH): 0.93 TEAC
8 | O=C1NN=C(C(F)(F)C(F)(F)F)/C1=N/O [1g] | 0.13 ± 0.04 (n.d.) TEAC |  | 7.8 ± 1.4 |  |  |  | 
9 | Oc1cc(C(F)(F)F)nn1-c1ccccc1 [CF3-EDA, 3-trifluoromethyl-1-phenylpyrazol-5-ol, reference compound] | 0.95 ± 0.04 TEAC |  | 7.6 ± 1.2 | 21.4 |  |  | IC50 [4]: 6.3 µM; Times less active compared to EDA in the OH radical binding test [5]: 3 times
10 | 3-methyl-1-phenyl-2-pyrazolin-5-one [EDA, reference compound] | 0.96 ± 0.04 TEAC |  | 8.4 ± 0.7 | 21.4 |  |  | IC50 [4]: 5.6 µM; Inhibitory Capability (IC, %) on NHDF ([3]; 1 µM): 3.74 ± 0.05%; Inhibitory Capability (IC, %) on NHDF ([3]; 10 µM): 19.9 ± 0.8%; Inhibitory Capability (IC, %) on NHDF ([3]; 100 µM): 32.8 ± 0.6%; BChE % inhibition at 20 μM [2]: 4.6 ± 0.2%
11 | Cl.Nc1c(C(F)(F)F)nn(-c2ccccc2)c1O [4a, 4-Amino-3-(trifluoromethyl)-1-phenyl-1H-pyrazol-5-ol hydrochloride] | 0.75 ± 0.04 TEAC | 6.9 ± 1.1 |  | 27.2 |  | 44.9 ± 4 µM | IC50 [4]: 8.8 µM; inhibition at 20 µM (human erythrocyte AChE; [6]): 7.9 ± 1.5%
12 | Cl.Nc1c(C(F)(F)C(F)(F)C(F)(F)C(F)(F)F)n[nH]c1O.O [4i, 4-Amino-3-(nonafluorobutyl)-1H-pyrazol-5-ol hydrate hydrochloride] | 0.45 ± 0.02 TEAC |  |  | 40.8 | 5.1 ± 0.9 | 22 µM and 21.8 µM | 
13 | Cl.Nc1c(C(F)(F)F)n[nH]c1O [4e, 4-Amino-3-(trifluoromethyl)-1H-pyrazol-5-ol hydrochloride] | 0.92 ± 0.04 TEAC | 5.6 ± 1.5 |  | 21.2 |  |  | inhibition at 20 µM (human erythrocyte AChE; [6]): 9.7 ± 1.5%
14 | Nc1c(C(F)(F)C(F)(F)C(F)(F)C(F)(F)F)nn(-c2ccccc2)c1O [4c, 5-Hydroxy-1-phenyl-3-(nonafluorobuthyl)-1H-pyrazol-4-ammonium hydrochloride] | 0.85 ± 0.04 TEAC | 10.3 ± 1.2 |  | 23.4 | 19.2 ± 1.7 | 10 µM and 10.2 µM | 
